The results in this text go back to patent publication US20160221965A1, “DISUBSTITUTED TRIFLUOROMETHYL PYRIMIDINONES AND THEIR USE” (BAYER PHARMA AKTIENGESELLSCHAFT, priority 2013, published 2016).

For one assay, the target named is T1, human CCR2 (Homo sapiens, UniProt P41597).
T1 construct: host or cells: Chem-1 cell line
T1 sequence (P41597 1-360 isoform P41597-2): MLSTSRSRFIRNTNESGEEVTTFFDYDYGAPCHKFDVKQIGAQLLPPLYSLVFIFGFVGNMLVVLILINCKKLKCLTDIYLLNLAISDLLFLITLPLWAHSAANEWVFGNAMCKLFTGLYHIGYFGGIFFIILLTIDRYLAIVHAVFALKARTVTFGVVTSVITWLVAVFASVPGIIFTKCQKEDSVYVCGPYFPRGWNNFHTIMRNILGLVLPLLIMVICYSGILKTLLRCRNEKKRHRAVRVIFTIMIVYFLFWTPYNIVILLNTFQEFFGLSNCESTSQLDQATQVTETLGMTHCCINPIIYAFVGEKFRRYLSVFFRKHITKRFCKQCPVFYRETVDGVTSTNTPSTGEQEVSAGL
As to the kind of experiment: Functional Ca2+ release test (B-1). In kind it is cell-based. Particulars: Chem-1 cell line transfected with human CCR2, inhibition of MCP-1 effect, MCP-1 at EC50 (about 5 nM), Fluo-4. The procedure: The antagonistic action of test substances on CCR2 was determined in a functional Ca^2+ release test. Binding of CCL2/MCP-1 to CCR2 leads to a change in the conformation of the receptor resulting in Gi/Gq protein activation and intracellular signal cascade. This involves, inter alia, an intracellular Ca^2+ release. The test cell used was a Chem-1 cell line transfected with human CCR2 (ChemiSCREEN™ CCR2B Calcium-Optimized FLIPR Cell Line, Merck Millipore).
(§1) The test substances were dissolved in dimethyl sulphoxide (DMSO) at a concentration of 10 mM and serially diluted with DMSO in steps of 1:3.16 for a 10-point dose/activity analysis. According to the desired test concentrations, the substances were pre-diluted in Tyrode with 2 mM CaCl2 and 0.05% BSA.
The cells, cultivated in DMEM high glucose [supplemented with 10% FCS, 1 mM pyruvate, 15 mM HEPES, 500 μg/ml geniticin and non-essential amino acids (NEAA)], were sown at 5000 cells/25 μl in 384 well, μCLEAR/black cell culture plates from Greiner (#781092) and incubated at 37° C. for 24 h. The sowing medium consisted of DMEM high glucose [supplemented with 5% FCS, 1 mM pyruvate, 15 mM HEPES, 50 U/ml penicillin, 50 μg/ml streptomycin and non-essential amino acids (NEAA)]. The medium was then removed and the cells were charged for 60 min at 37° C. with Fluo-4 dye [25 μl Tyrode with 3 μM Fluo-4 AM (1 mM DMSO stock solution), 0.4 mg/ml Brilliant Black, 2.5 mM probenicid, 0.03% Pluronic F-127]. The cells were pre-incubated for 10 min with 10 μl of the test substances diluted in buffer, and 20 μl of agonist solution (MCP-1 in Tyrode with 0.05% BSA) were then added. MCP-1 was employed at the concentration which corresponds to the EC50 which had been determined in a preliminary test (usually about 5 nM). Ca^2+ release was monitored over a period of 120 s in 1 s increments in a proprietary fluorescence imaging reader. The molar concentration of the test substance which caused 50% inhibition of the MCP-1 effect (IC50) was determined using a 4-parameter logistic function (Hill function).

The next assay deals with T2, murine CCR2 (Mus musculus, UniProt P51683).
T2 construct: host or cells: U2OS β-arrestin cell line
T2 sequence (P51683 whole entry): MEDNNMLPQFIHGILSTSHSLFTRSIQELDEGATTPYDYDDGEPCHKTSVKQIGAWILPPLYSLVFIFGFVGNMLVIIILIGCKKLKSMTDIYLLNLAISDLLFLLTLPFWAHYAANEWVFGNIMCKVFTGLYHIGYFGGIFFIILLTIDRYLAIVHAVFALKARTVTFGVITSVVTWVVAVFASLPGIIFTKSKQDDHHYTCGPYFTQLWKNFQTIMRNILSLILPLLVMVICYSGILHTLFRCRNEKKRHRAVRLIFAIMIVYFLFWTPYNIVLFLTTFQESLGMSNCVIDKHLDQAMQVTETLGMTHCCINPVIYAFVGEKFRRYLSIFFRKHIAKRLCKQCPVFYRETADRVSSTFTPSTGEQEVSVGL
The assay is described as follows: Functional β-arrestin recruiting test with human MCP-1 (B-2a). In kind it is cell-based. Conditions: U2OS β-arrestin cell line transfected with murine CCR2; agonist human MCP-1 at EC50 (about 3 nM). The procedure: The antagonistic action of test substances on CCR2 was determined in a β-arrestin test. The PathHunter β-arrestin GPCR test system (DiscoveRx Corporation, Ltd.) is a cell-based functional method for detecting binding of β-arrestin to an activated receptor. The molecular basis is a β-galactosidase complementation measured by the enzymatic conversion of a chemiluminescent substrate. The test cell used was a U2OS β-arrestin cell line transfected with murine CCR2 (93-0543C3, DiscoveRx Corporation, Ltd.).
as §1
The cells, cultivated in MEM Eagle (supplemented with 10% FCS, 50 U/ml of penicillin, 50 μg/ml of streptomycin, 250 μg/ml of hygromycin and 500 μg/ml of geniticin), were sown at 2000 cells/25 μl in 384 well, μCLEAR/black cell culture plates from Greiner (#781092) and incubated at 37° C. for 24 h. The sowing medium consisted of Opti-MEM (supplemented with 1% FCS, 50 U/ml of penicillin and 50 μg/ml of streptomycin). The cells were pre-incubated for 10 min with 10 μl of the test substances diluted in buffer, and 10 μl of agonist solution [human MCP-1 (PeproTech, #300-04) in Tyrode with 0.05% BSA] were then added. The human MCP-1 was employed at the concentration which corresponds to the EC50 which had been determined in a preliminary test (usually about 3 nM). After 90 min of incubation at 37° C., the solution was removed, and recruitment of β-arrestin to CCR2 was detected with the aid of the PathHunter detection reagent (93-001, DiscoveRx Corporation, Ltd.) according to the instructions of the manufacturer. Luminescence was measured after an incubation time of 60 min using a proprietary luminescence imaging measuring instrument. The molar concentration of the test substance which caused 50% inhibition of the MCP-1 effect (IC50) was determined using a 4-parameter logistic function (Hill function).
(In general: Recruitment of arrestin is a read-out of receptor activation apart from second messengers.)

The IC50 is the midpoint of a concentration-inhibition curve. Higher therefore signals weaker potency in that assay.

For `Nc1nc(C(F)(F)F)c(Oc2ccc(F)c(Cl)c2)c(=O)[nH]1` [Example 4, 2-amino-5-(3-chloro-4-fluorophenoxy)-6-(trifluoromethyl)pyrimidin-4(3H)-one], the IC50 at human CCR2 is 6.5 nM; on murine CCR2, 220 nM.
`Nc1nc(C(F)(F)F)c(Oc2ccc(Cl)c(F)c2)c(=O)[nH]1` [Example 5, 2-amino-5-(4-chloro-3-fluorophenoxy)-6-(trifluoromethyl)pyrimidin-4(3H)-one]: the IC50 against human CCR2 came out at 8.7 nM; on murine CCR2, 210 nM.
On to `Nc1nc(C(F)(F)F)c(Oc2ccc(F)c(C(F)(F)F)c2)c(=O)[nH]1` [Example 6, 2-amino-5-[4-fluoro-3-(trifluoromethyl)phenoxy]-6-(trifluoromethyl)pyrimidin-4(3H)-one], for which the IC50 against human CCR2 is 5.4 nM; on murine CCR2 it was 150 nM.
For `Nc1nc(C(F)(F)F)c(Cc2ccc(F)c(Cl)c2)c(=O)[nH]1` [Example 7, 2-amino-5-(3-chloro-4-fluorobenzyl)-6-(trifluoromethyl)pyrimidin-4(3H)-one], in that order: 11 nM and 300 nM.
For `Nc1nc(C(F)(F)F)c(Cc2ccc(Cl)c(C(F)(F)F)c2)c(=O)[nH]1` [Example 8, 2-amino-5-[4-chloro-3-(trifluoromethyl)benzyl]-6-(trifluoromethyl)pyrimidin-4(3H)-one], in that order: 33 nM and 160 nM.
Consider `Nc1nc(C(F)(F)F)c(Oc2cccc(Cl)c2)c(=O)[nH]1` [Example 9, 2-amino-5-(3-chlorophenoxy)-6-(trifluoromethyl)pyrimidin-4(3H)-one], for which the IC50 at human CCR2 amounted to 38 nM; at murine CCR2, 450 nM.
In the case of `Nc1nc(C(F)(F)F)c(Oc2ccc(F)c(F)c2)c(=O)[nH]1` [Example 10, 2-amino-5-(3,4-difluorophenoxy)-6-(trifluoromethyl)pyrimidin-4(3H)-one], the IC50 turned out to be 43 nM on human CCR2 and 1300 nM at murine CCR2.
Regarding `Cc1ccc(Cc2c(C(F)(F)F)nc(N)[nH]c2=O)cc1Cl` [Example 11, 2-amino-5-(3-chloro-4-methylbenzyl)-6-(trifluoromethyl)pyrimidin-4(3H)-one], the IC50 on human CCR2 turned out to be 42 nM; on murine CCR2, 560 nM.
Consider `Nc1nc(C(F)(F)F)c(Oc2cncc(Cl)c2)c(=O)[nH]1` [Example 12, 2-amino-5-[(5-chloropyridin-3-yl)oxy]-6-(trifluoromethyl)pyrimidin-4(3H)-one], for which the values for the IC50 at human CCR2 and at murine CCR2 were 54 nM and 1000 nM, respectively.
For `Nc1nc(C(F)(F)F)c(Cc2ccc(Cl)c(F)c2)c(=O)[nH]1` [Example 13, 2-amino-5-(4-chloro-3-fluorobenzyl)-6-(trifluoromethyl)pyrimidin-4(3H)-one], in that order: 69 nM and 330 nM.
In the case of `Nc1nc(C(F)(F)F)c(Cc2ccc(C(F)(F)F)c(Cl)c2)c(=O)[nH]1` [Example 14, 2-amino-5-[3-chloro-4-(trifluoromethyl)benzyl]-6-(trifluoromethyl)pyrimidin-4(3H)-one], the IC50 against human CCR2 came to 71 nM; at murine CCR2, 810 nM.
Turning to `Nc1nc(C(F)(F)F)c(Sc2ccc(Cl)c(Cl)c2)c(=O)[nH]1` [Example 15, 2-Amino-5-[(3,4-dichlorophenyl)sulphanyl]-6-(trifluoromethyl)pyrimidin-4(3H)-one], the IC50 is 2.3 nM against human CCR2 and 130 nM at murine CCR2.
For `Nc1nc(C(F)(F)F)c(Sc2ccc(Cl)cc2)c(=O)[nH]1` [Example 16, 2-amino-5-[(4-chlorophenyl)sulphanyl]-6-(trifluoromethyl)pyrimidin-4(3H)-one], in that order: 31 nM and 640 nM.
As to `Nc1nc(C(F)(F)F)c(Sc2ccc(Cl)c(C(F)(F)F)c2)c(=O)[nH]1` [Example 17, 2-amino-5-{[4-chloro-3-(trifluoromethyl)phenyl]sulphanyl}-6-(trifluoromethyl)pyrimidin-4(3H)-one], the IC50 at human CCR2 stood at 4.1 nM; on murine CCR2, 160 nM.
As for `Cc1nc(C(F)(F)F)c(Cc2ccc(Cl)c(Cl)c2)c(=O)[nH]1` [Example 18, 5-(3,4-Dichlorobenzyl)-2-methyl-6-(trifluoromethyl)pyrimidin-4(3H)-one], the half-maximal inhibitory concentration (IC50) is 33 nM against human CCR2 and 370 nM at murine CCR2.
Consider `CCc1nc(C(F)(F)F)c(Cc2ccc(C(F)(F)F)c(Cl)c2)c(=O)[nH]1` [Example 19, 5-[3-Chloro-4-(trifluoromethyl)benzyl]-2-ethyl-6-(trifluoromethyl)pyrimidin-4(3H)-one], for which the IC50 stood at 63 nM on human CCR2 and 980 nM at murine CCR2.
On to `CCc1nc(C(F)(F)F)c(Cc2cccc(C(F)(F)F)c2)c(=O)[nH]1` [Example 20, 2-ethyl-6-(trifluoromethyl)-5-[3-(trifluoromethyl)benzyl]pyrimidin-4(3H)-one], for which the 50% inhibitory concentration (IC50) against human CCR2 was determined as 300 nM; on murine CCR2 it was 1200 nM.
For `O=c1[nH]c(C2CC2)nc(C(F)(F)F)c1Cc1cccc(Cl)c1` [Example 21, 5-(3-chlorobenzyl)-2-cyclopropyl-6-(trifluoromethyl)pyrimidin-4(3H)-one], the IC50 at human CCR2 stood at 230 nM; on murine CCR2, 590 nM.
On to `CCCCc1nc(C(F)(F)F)c(Cc2ccc(Cl)c(Cl)c2)c(=O)[nH]1` [Example 22, 2-butyl-5-(3,4-dichlorobenzyl)-6-(trifluoromethyl)pyrimidin-4(3H)-one], for which the IC50 on human CCR2 is 110 nM; at murine CCR2, 740 nM.
`O=c1[nH]c(C2CC2)nc(C(F)(F)F)c1Cc1ccc(Cl)c(F)c1` [Example 23, 5-(4-chloro-3-fluorobenzyl)-2-cyclopropyl-6-(trifluoromethyl)pyrimidin-4(3H)-one]: the IC50 came out at 280 nM against human CCR2 and 1200 nM on murine CCR2.
On to `O=c1[nH]c(C2CC2)nc(C(F)(F)F)c1Cc1ccc(C(F)(F)F)c(Cl)c1` [Example 24, 5-[3-chloro-4-(trifluoromethyl)benzyl]-2-cyclopropyl-6-(trifluoromethyl)pyrimidin-4(3H)-one], for which the results for the IC50 on human CCR2 and on murine CCR2 were 270 nM and 1900 nM, respectively.
As for `O=c1[nH]c(C2CC2)nc(C(F)(F)F)c1Oc1ccc(Cl)c(Cl)c1` [Example 25, 2-cyclopropyl-5-(3,4-dichlorophenoxy)-6-(trifluoromethyl)pyrimidin-4(3H)-one], the figures for the IC50 against human CCR2 and on murine CCR2 were 15 nM and 170 nM, respectively.
As for `CCc1nc(C(F)(F)F)c(Cc2ccc(Cl)c(C(F)(F)F)c2)c(=O)[nH]1` [Example 26, 5-[4-chloro-3-(trifluoromethyl)benzyl]-2-ethyl-6-(trifluoromethyl)pyrimidin-4(3H)-one], the values for the IC50 on human CCR2 and at murine CCR2 were 31 nM and 240 nM, respectively.
